Where “and” joins values, the source holds several entries; their conditions need not be identical. Equal values may be shown once. Read-outs that look alike come from different tables or passages of the source.

Experiment [1] has as its target T1, SARS-CoV-2 3CL protease (Severe acute respiratory syndrome coronavirus 2, UniProt P0DTD1). The experiment is described as follows: biochemical.
In experiment [2] the test system is SARS-CoV-2. The experiment is described as follows: microbe, parasite or virus in culture. The experiment is classed as cell-based. Conditions: for EC50: Severe acute respiratory syndrome coronavirus 2, 24 h, read-out: SARS-CoV-2 Huh-7ACE2 EC50.
The target in experiment [3] is T1, SARS-CoV-2 3CL protease. Nature of the experiment: biochemical. The note with it: for kinact/KI: read-out: SARS-CoV-2 3CLpro kinact/KI.
Setting [4] is: 0.2 µM protease with 50 µM tested compound, replicates.
Where [5] appears, read: 200 nM protease, read-out: IC50.
Setting [6] is: 20 nM protease, read-out: SARS-CoV-2 3CLpro IC50.
Setting [7] is: Concentration of inhibitor (nM) 0.19382.
The mark [8] stands for this setting: Concentration of inhibitor (nM) 0.49485.
The mark [9] stands for this setting: Concentration of inhibitor (nM) 0.79588.
The mark [10] stands for this setting: Concentration of inhibitor (nM) 1.09691.
Where [11] appears, read: Concentration of inhibitor (nM) 1.39794.
[12] abbreviates: Concentration of inhibitor (nM) 1.69897.
[13] abbreviates: Concentration of inhibitor (nM) 2.
[14] abbreviates: Concentration of inhibitor (nM) 2.30103.
Where [15] appears, read: Concentration of inhibitor (nM) -0.10721.
Where [16] appears, read: Concentration of inhibitor (nM) -0.40824.
Where [17] appears, read: Concentration of inhibitor (nM) 2.60206.

Take `COc1ccc(CNS(=O)(=O)c2cccnc2)cc1` [AZVIII-44H]: the “Normalized SARS-CoV-2 3CL protease activity” value in experiment [1] (setting [4]) was 0.9803 and 0.9852 and 1.015. In addition, in experiment [1] (setting [5]), the IC50 is over 50000 nM.

`O=S(=O)(NCc1ccncn1)c1cccnc1` [AZVIII-49C]: the “Normalized SARS-CoV-2 3CL protease activity” value in experiment [1] (setting [4]) is 1.015 and 1.0173 and 1.005. Besides, the IC50 in experiment [1] (setting [5]) was over 50000 nM.

In the case of `O=S(=O)(NCc1ccncn1)c1ccccc1` [AZVIII-49F], the “Normalized SARS-CoV-2 3CL protease activity” value in experiment [1] (setting [4]) was 1.058 and 1.081 and 1.099. The IC50 in experiment [1] (setting [5]) is over 50000 nM.

As for `O=CCN(Cc1ccccc1)S(=O)(=O)c1ccccc1` [AZVIII-57D], the “Normalized SARS-CoV-2 3CL protease activity” value in experiment [1] (setting [4]) is 1.196 and 1.186 and 0.9817. Also, the IC50 in experiment [1] (setting [5]) is over 50000 nM.

In the case of `COc1ccc(S(=O)(=O)N(CC=O)Cc2ccccc2)cc1` [AZVIII-57G], the “Normalized SARS-CoV-2 3CL protease activity” value in experiment [1] (setting [4]) is 1.117 (2×) and 1.175 (2×) and 1.168 (2×). The IC50 in experiment [1] (setting [5]) was over 50000 nM.

Regarding `O=C(N[C@@H](CC1CC1)C(=O)N[C@@H](C[C@@H]1CCNC1=O)C(O)S(=O)(=O)O)OCc1ccccc1` (stereo partly shown) [NK01-14], the “inhibition of SARS-CoV-2 (Figure s17b dose-response, replicate values)” value (“inhibition” below) in experiment [2] is 107.44 and 106.681 and 107.657 and 104.164 and 95.5823 and 98.4941 and 57.1014 and 42.1437 and 64.5278 and 21.8135 and 20.6648 and 21.9136 and 20.2988 and 22.5837 and -3.217 and 20.0515 and 23.307 and 7.747 and 3.643 and 5.208 and 12.2626. Also, the EC50 in experiment [2] came out at 26 nM. For the same molecule, the IC50 in experiment [1] (setting [6]) is 22 nM. Moreover, the “normalized activity, dose-response curve (Figure S16)” value (from here on “normalized activity”) was 88.3287 and 88.0525 in experiment [1] (setting [7]); 79.1436 and 83.9088 in experiment [1] (setting [8]); 76.0359 and 72.2376 in experiment [1] (setting [9]); 63.3978 and 55.1105 in experiment [1] (setting [10]); 56.2155 and 53.3149 in experiment [1] (setting [11]); 37.1547 and 46.616 in experiment [1] (setting [12]). The “normalized activity” value in experiment [1] (setting [13]) was 24.2403 and 25.2762; in experiment [1] (setting [14]), 7.666 and 9.392; in experiment [1] (setting [15]) it was 96.8923 and 94.268; in experiment [1] (setting [16]) it was 109.254 and 100. Also, the “observed inactivation rate vs compound concentration (Figure S19, replicate values)” value in experiment [3] is 0.0144 and -0.00118 and 0.0245 and 0.0068 and 0.0252 and 0.0272 and 0.0287 and 0.0225 and 0.0192 and -0.00612 and 0.0023 and 0.0187. The kinact/KI in experiment [3] was 71700 M⁻¹ s⁻¹.

Turning to `CC(C)C[C@H](NC(=O)OCc1cc(F)c(F)cc1F)C(=O)N[C@@H](C[C@@H]1CCNC1=O)C(O)S(=O)(=O)O` (stereo partly shown) [NK01-48], the “inhibition” value in experiment [2] is 125.494 and 126.964 and 86.3185 and 118.605 and 134.4 and 122.016 and 84.6265 and 61.89 and 119.128 and 54.4703 and 35.4275 and 15.416 and 32.4697 and 30.0193 and 47.7694 and 0.4554 and -12.5084 and -5.078 and 34.0338 and 10.0006 and 6.443. Also, in experiment [2], the EC50 was 15 nM. Further, in experiment [1] (setting [6]), the IC50 came to 92 nM. Further, the “normalized activity” value in experiment [1] (setting [7]) is 99.5986 and 99.2546; in experiment [1] (setting [8]), 84.289 and 78.0963; in experiment [1] (setting [9]), 92.7179 and 89.3922; in experiment [1] (setting [10]), 76.6628 and 70.7569; in experiment [1] (setting [11]) it was 79.2431 and 69.9541; in experiment [1] (setting [12]), 62.156 and 55.5619. Also, the “normalized activity” value in experiment [1] (setting [13]) was 48.3945 and 50.2294; in experiment [1] (setting [14]) it was 33.7729 and 21.5023; in experiment [1] (setting [17]) it was 18.3486 and 12.328; in experiment [1] (setting [15]) it was 97.1904 and 78.0963; in experiment [1] (setting [16]), 97.1904 and 100. Also, in experiment [3], the “observed inactivation rate vs compound concentration (Figure S19, replicate values)” value is 0.0181 and 0.0442 and 0.0252 and 0.0284 and 0.021 and 0.0128 and 0.0148 and 0.0158 and 0.0136 and 0.0037 and 0.0168 and 0.02 and 0.0021 and 0.0084 and 0.0011. The kinact/KI in experiment [3] is 5000 M⁻¹ s⁻¹.

In the case of `O=C(N[C@@H](CC1CC1)C(=O)N[C@@H](C[C@@H]1CCNC1=O)C(O)S(=O)(=O)O)OCc1cccc(Cl)c1` (stereo partly shown) [NK01-57], in experiment [2], the “inhibition” value was 104.54 and 74.4176 and 64.8123 and 55.4072 and 79.8077 and 89.5745 and 61.4462 and 18.0183 and 12.437 and -10.4634 and -16.0501 and 3.693 and 24.8584 and -12.4097 and 6.795 and 29.8589 and -3.6952 and 33.5228 and 9.378 and -5.3463 and 36.5619. Also, the EC50 in experiment [2] came out at 92 nM. The IC50 in experiment [1] (setting [6]) is 13 nM. Further, the “normalized activity” value in experiment [1] (setting [7]) was 95.6172 and 86.9248; in experiment [1] (setting [8]), 85.9021 and 78.3053; in experiment [1] (setting [9]) it was 79.0358 and 66.0336; in experiment [1] (setting [10]), 62.3083 and 48.2104; in experiment [1] (setting [11]), 43.3163 and 27.8305; in experiment [1] (setting [12]) it was 26.2235 and 13.9518. In addition, the “normalized activity” value was 6.939 and 9.715 in experiment [1] (setting [14]); 9.934 and 9.2038 in experiment [1] (setting [17]); 107.889 and 102.703 in experiment [1] (setting [15]); 100 and 101.315 in experiment [1] (setting [16]). Also, in experiment [3], the “observed inactivation rate vs compound concentration (Figure S19, replicate values)” value is 0.0175 and 0.0065 and 0.0112 and -0.01176 and 0.0254 and -0.00163 and 0.0094 and -0.00166 and -0.05051 and -0.00614 and -0.01353 and -0.00565 and -0.00112 and -0.0108 and -0.00266 and -0.00784 and 0.0038 and -0.0081 and -0.00313 and -0.00276 and 0.0019.

Consider `CSc1ncccc1C#N` [NT-1-21], for which the “Normalized SARS-CoV-2 3CL protease activity” value in experiment [1] (setting [4]) is 1.059 and 1.079 and 0.9766.

For `CS(=O)(=O)c1ncccc1C#N` [NT-1-24], in experiment [1] (setting [4]), the “Normalized SARS-CoV-2 3CL protease activity” value is 0.9913 and 0.611 and 0.8892.

In the case of `CS(=O)(=O)c1nc(C(F)(F)F)ccc1C#N` [NT-1-32], the “Normalized SARS-CoV-2 3CL protease activity” value in experiment [1] is 0.9191 and 0.9056 and 0.7525.

For the origin of these results see publication PMC8989888, “Development of optimized drug-like small molecule inhibitors of the SARS-CoV-2 3CL protease for treatment of COVID-19” (Nature Communications, 2022).
